According to patent US7312240B2, “Conformationally constrained paclitaxel analogs and their use as anticancer and anti-Alzheimers agents” (Virginia Tech Intellectual Properties, Inc., priority 2004, dated 2007):

Key:
[1] = test system: GDP-tubulin; assay: Critical concentration determination of tubulin assembly; assay type: biochemical; details: Taxoid concentration 10 μM; 37° C., PME buffer, 4% DMSO
Method: Critical Concentration Determination. The critical concentration of tubulin in the presence of 10 μM Taxol or Taxol analog was determined from assembly experiments performed at 37° C. with GDP-tubulin in PME buffer (100 mM PIPES, 2 mM MgSO4, 1 mM EGTA, pH=6.90) containing 4% DMSO. The extent of assembly was measured at different tubulin concentrations (0.5-6 μM) by light scattering (apparent absorption at 350 nm). Critical concentrations were calculated from the x-intercepts of plots of apparent A350 nm VS. tubulin concentration.

[2] = test system: Taxol binding site on crosslinked microtubules (polymerized tubulin); assay: Competition binding with fluorescent Taxol N-AB-PT; details: for Inhibit binding F-Taxol: 10 μM Taxol or Taxoid, 5 μM N-AB-PT, 5 μM crosslinked microtubules
Method: Competition Binding Experiments. The relative affinities of Taxol and derivatives for polymerized tubulin were assessed by competition assays. Crosslinked microtubules were prepared in glycerol assembly buffer (10 mM phosphate, 1 mM EGTA, 0.1 mM GTP 3.4 M glycerol, pH 6.9) as described by Andreu and Barasoain. Prior to use, the crosslinked microtubules were dialyzed against PME buffer for 16-18 hr. Crosslinked microtubules (5 μM) and the fluorescent Taxol derivative N-AB-PT (15, 5 μM) in PME buffer were incubated for 20 min at room temperature with 10 μM of Taxol or the Taxoid. The fluorescence emission intensity at 412 nm of each sample was recorded using a Jobin-Yvon Horiba Fluoromax-3 spectrofluorometer in a 2 mm×10 mm quartz cell (1ex=320 nm) and compared to the emission intensity of the system in the absence of competitor.
For the fall competition experiment, microtubules, N-AB-PT and varying concentrations of Taxol or 13b (0-30 μM) were treated in the same manner and their emission intensities were measured. The full competition experiment was repeated using pure tubulin assembled by N-AB-PT and identical results were obtained (data not shown).

[3] = test system: purified tubulin; details: read-out: ED50, Tb polymerization; Tubulin concentration 5 μM
[4] = test system: PC-3 prostate cell line; assay: Cytotoxicity against PC3 prostate cancer cell line; details: for IC50(cp)/IC50(tx) PC3: ratio of compound IC50 to Taxol IC50, PC3
[5] = test system: A2780 ovarian cancer cell line; assay: Cytotoxicity against A2780 ovarian cancer cell line; details: for IC50(cp)/IC50(tx) A2780: ratio of compound IC50 to Taxol IC50, A2780; for times more potent/active than PTX against A2780: A2780, relative to PTX
[6] = test system: paclitaxel resistant and epothilone A resistant cell lines; assay: Activity against paclitaxel resistant and epothilone A resistant cell lines; assay type: cell-based
[7] = test system: A2780 ovarian cancer cell line; details: meta-bridged analogs, earlier work (Org. Lett. 2001, 3, 2461); cited from earlier work

| SMILES | Critical Tb conc. [1] | Inhibit binding F-Taxol [2] | competition experiment with fluorescent Taxol, compared with Taxol/PTX ([2]; N-AB-PT 5 μM, increasing competitor (0-30 μM), FIG. 14) | EC50 [3] | cytotoxicity against PC3 in words, compared with PTX/Taxol [4] | IC50(cp)/IC50(tx) PC3 [4] | cytotoxicity against A2780 in words, compared with PTX/Taxol or related analogs [5] | IC50(cp)/IC50(tx) A2780 [5] | times better activity than paclitaxel [6] | times more potent/active than PTX against A2780 [5] | potency as cytotoxins, fold less than Taxol/PTX [7] |
| --- | --- | --- | --- | --- | --- | --- | --- | --- | --- | --- | --- |
| CC(=O)O[C@H]1C(=O)[C@@]2(C)[C@@H]3[C@H](OC(=O)c4ccccc4)[C@]4(O)C[C@H](OC(=O)[C@H](O)[C@@H](NC(=O)c5ccccc5)c5ccccc5OC/C=C/C(=O)O[C@]35CO[C@@H]5C[C@@H]2O)C(C)=C1C4(C)C [Compound 13b] | 1.2 ± 0.24 µM | 30% | equal affinity | 280 ± 110 nM | equipotent with Taxol | 1.0 | equipotent with Taxol | 0.97 | – | – | – |
| CC(=O)OC1C(=O)C2(C)C(O)CC3OCC34OC(=O)CCCc3ccccc3C(NC(=O)c3ccccc3)C(O)C(=O)OC3CC(O)(C(OC(=O)c5ccccc5)C42)C(C)(C)C1=C3C (centres unmarked) [Compound 14a] | 0.35 ± 0.06 µM | 79% | – | 210 ± 90 nM | more potent than Taxol | 0.67 | more potent than Taxol | 0.08 | – | – | – |
| CC(=O)OC1C(=O)C2(C)C(O)CC3OCC34OC(=O)CCCOc3ccccc3C(NC(=O)c3ccccc3)C(O)C(=O)OC3CC(O)(C(OC(=O)c5ccccc5)C42)C(C)(C)C1=C3C (centres unmarked) [Compound 14b] | 1.3 ± 0.33 µM | 7% | – | 830 ± 190 nM | slightly less potent | 3.3 | slightly less potent | 1.2 | – | – | – |
| CC(=O)O[C@H]1C(=O)[C@@]2(C)[C@@H]3[C@H](OC(=O)c4ccccc4)[C@]4(O)C[C@H](OC(=O)[C@H](O)[C@@H](NC(=O)c5ccccc5)c5ccccc5C/C=C\C(=O)O[C@]35CO[C@@H]5C[C@@H]2O)C(C)=C1C4(C)C [Compound 15d] | – | – | – | – | slightly more cytotoxicity than PTX | – | – | – | 100 times | at least 20 times | – |
| CC(=O)O[C@H]1C(=O)[C@@]2(C)[C@@H]3[C@H](OC(=O)c4ccccc4)[C@]4(O)C[C@H](OC(=O)C(O)C(NC(=O)c5ccccc5)c5cccc(c5)OC/C=C\CCC(=O)O[C@]35CO[C@@H]5C[C@@H]2O)C(C)=C1C4(C)C (some centres unmarked) [Compound 16] | – | – | – | – | – | – | – | – | – | – | less than one-tenth the activity of Taxol |
| CC(=O)O[C@H]1C(=O)[C@@]2(C)[C@@H]3[C@H](OC(=O)c4ccccc4)[C@]4(O)C[C@H](OC(=O)[C@H](O)[C@@H](NC(=O)c5ccccc5)c5ccccc5CCCC(=O)O[C@]35CO[C@@H]5C[C@@H]2O)C(C)=C1C4(C)C [Compound 16d] | – | – | – | – | slightly more cytotoxicity than PTX | – | – | – | 100 times | about 10 times | – |
